The values that follow come from patent US11292773B2, “Small molecule inhibitors of BCL-2-associated death promoter (BAD) phosphorylation” (NATIONAL UNIVERSITY OF SINGAPORE, priority 2017, dated 2022).

The test system of the series is MCF7 xenograft. Briefly: MCF7 xenograft in BALB/c-nu female mice. It is filed as in vivo. The method, then: (A) Measurement of tumour volume in BALB/c-nu female mice as described in materials and methods. Animals (n=5 each group) were treated with vehicle, 5 mg/kg NPB or 20 mg/kg NPB, and relative tumour burden was recorded. Animal weight was measured daily for the duration of the experiment. (B) Tumours were excised after the NPB treatment regime and weighed. Representative resected tumours are shown in the right side. (C) WB of tumour tissue to determine levels of p-BAD (Ser99) and BAD. Soluble whole cell extracts were run on an SDS-PAGE and immunoblotted as described in methodology. β-ACTIN was used as an input control. The sizes of detected protein bands in kDa are shown on the left side. (D) Histological analyses of phospho-BAD, BAD, Ki67 and TUNEL staining. […] Apoptotic DNA fragmentation was detected using TUNEL Apoptosis Detection Kit (Gen Script USA Inc.) as described in methodology. Statistical significance was assessed by an unpaired two-tailed Student's t-test (P<0.05 was considered as significant) using GraphPad Prism5. The point represents mean of triplicate experiments; bars, ±SD. **P<0.001, *P<0.05.
5- to 6-week-old BALB/c-nu female mice were subcutaneously implanted with 17β-estradiol pellets (Innovative Research of America) at 0.72 mg/pellet with a 60-day release in the scruff of the neck after three days mice were injected subcutaneously with 100 μl of cell suspension (1×10^7 cells) in right flanks. Tumour growth was monitored by measuring the tumour size using callipers. About 12 days after implantation, mice were randomized and divided into three groups (each group, n=8), according to treatments administered 200 μl of NPB (dissolved in 5% DMSO, 50% PEG400 and 45% water pH 5.0) by intraperitoneal injection every day for seven days. The first group of mice was treated with vehicle, the second with 5 mg/kg dose of NPB, and the third with 20 mg/kg dose of NPB. Animal weight and tumour volumes were measured daily. After completion tumours were excised, photographed, weighed, and fixed or stored in liquid nitrogen for later analysis. Histological analysis was performed as previously described (30-32).
We examined the in vivo efficacy of NPB in a xenograft (MCF7) of MC. Randomly grouped mice with preformed tumours (volume ˜[…]) were injected intraperitoneally with vehicle or NPB at 5 mg/kg or 20 mg/kg. […] However, the tumour weight of NPB-treated animals was reduced compared to vehicle-treated mice and in a dose-dependent manner (FIG. 17B). We further analysed the effect of NPB on hBAD Ser99 phosphorylation levels in tumour tissue using WB analysis (FIG. 17C).

Where [1] appears, read: 5 mg/kg or 20 mg/kg intraperitoneal, daily for seven days, vs vehicle.
[2] abbreviates: histological analysis, vs vehicle.
Where [3] appears, read: tumour tissue, western blot, vs control.

Structures are written as SMILES.

`O=C(NC1CCCC1)c1cccc(C(c2ccccc2O)N2CCN(c3cccc(Cl)c3Cl)CC2)c1` (centres unmarked) [NPB, N-cyclopentyl-3-((4-(2,3-dichlorophenyl)piperazin-1-yl)(2-hydroxyphenyl)methyl) benzamide]: under setting [1], the animal weight entry is on record as “not significantly different” and the tumour volume entry is reported as “significant reduction”. Further, the tumour weight result (5 mg/kg or 20 mg/kg intraperitoneal, dose-dependent, vs vehicle) is “reduced”. For the same compound, under setting [2], the “TUNEL positivity in tumours” value is “significantly increased”, the “p-BAD (Ser99) in tumour specimens (histology)” value is reported as “significantly reduced” and the “percentage of Ki67 positive cells in tumours” value is given as “significantly decreased”. Besides, under setting [3], the “phosphorylation of BAD (at Ser99) in tumour tissue (WB)” value is listed as “significantly inhibited” and the “total levels of BAD protein in tumours (WB)” value is recorded as “No change”.
